One may read the IC50 as the concentration needed to halve the response being measured.

These results are taken from patent publication US9365576B2, “Pyrrolopyrrolidinone compounds” (Novartis AG, priority 2012, dated 2016).

For one assay, the target named is human MDM2 protein (amino acids 2-188) (Homo sapiens (Human), UniProt Q00987). Put plainly: TR-FRET assay, p53-MDM2 Assay 2 (modified). Type of assay: binding.
Sequence of human MDM2 protein (amino acids 2-188) (Q00987 2-188): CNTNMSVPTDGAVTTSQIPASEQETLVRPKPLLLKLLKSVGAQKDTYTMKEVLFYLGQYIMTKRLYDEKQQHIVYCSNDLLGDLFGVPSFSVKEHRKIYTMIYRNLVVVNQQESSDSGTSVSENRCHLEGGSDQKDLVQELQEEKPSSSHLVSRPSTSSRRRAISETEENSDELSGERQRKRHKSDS
Details: not given
The method, boiled down:
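IC50 values were curve-fitted from the time-resolved 665/620 nm emission ratio after 340 nm excitation. The assay combined 0.625 nM europium-streptavidin donor with 1.25 nM C-terminally biotinylated MDM2 2–188 (15 min, RT), followed by 15 min with 10 nM Cy5-labeled p53 18–26 acceptor peptide.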
(TR-FRET usually uses a lanthanide donor and a delayed reading to cut background.)
In the case of `COc1ncccc1-c1cc2c(n1C(C)C)C(c1ccc(Cl)cc1)N(c1cc(Cl)ccc1C)C2=O` (stereo not shown) [Example 12, 5-(5-Chloro-2-methyl-phenyl)-6-(4-chloro-phenyl)-1-isopropyl-2-(2-methoxy-pyridin-3-yl)-5,6-dihydro-1H-pyrrolo[3,4-b]pyrrol-4-one], the IC50 worked out at 0.49 nM.

The same assay, now with this note: TR-FRET; 0.1 nM MDM2, 0.1 nM Europium labeled streptavidin, Tecan genios Pro reader; read-out: IC50 p53-MDM2 Assay 2.
With `COc1ccc(CC(=O)O)cc1-c1cc2c(n1C(C)C)[C@@H](c1ccc(Cl)cc1)N(c1cc(Cl)ccc1C)C2=O` [Example 92, {3-[(R)-5-(5-Chloro-2-methyl-phenyl)-6-(4-chloro-phenyl)-1-isopropyl-4-oxo-1,4,5,6-tetrahydro-pyrrolo[3,4-b]pyrrol-2-yl]-4-methoxy-phenyl}-acetic acid], the IC50 was 41.9 nM.

For the molecule `COc1ncc(-c2cc3c(n2C(C)C)C(c2ccc(C#N)cc2)N([C@H]2CC[C@H](O)CC2)C3=O)c(OC)n1` (stereo partly drawn) [Example 173, 4-[2-(2,4-Dimethoxy-pyrimidin-5-yl)-5-(trans-4-hydroxy-cyclohexyl)-1-isopropyl-4-oxo-1,4,5,6-tetrahydro-pyrrolo[3,4-b]pyrrol-6-yl]-benzonitrile], the IC50 is 13.6 nM.

With `COc1ccc(C(=O)N2CCOCC2)cc1-c1cc2c(n1C(C)C)C(c1ccc(Cl)cc1)N(c1ccc(F)c(Cl)c1)C2=O` (stereo not shown) [Example 55, 5-(3-Chloro-4-fluoro-phenyl)-6-(4-chloro-phenyl)-1-isopropyl-2-[2-methoxy-5-(morpholine-4-carbonyl)-phenyl]-5,6-dihydro-1H-pyrrolo[3,4-b]pyrrol-4-one], the IC50 turned out to be 0.287 nM.

In the case of `COc1ncc(-c2cc3c(n2C(C)C)C(c2ccc(C#N)cc2)N(c2cc(Cl)c(=O)n(C)c2)C3=O)c(OC)n1` (stereo not shown) [Example 153, 4-[5-(5-Chloro-1-methyl-6-oxo-1,6-dihydro-pyridin-3-yl)-2-(2,4-dimethoxy-pyrimidin-5-yl)-1-isopropyl-4-oxo-1,4,5,6-tetrahydro-pyrrolo[3,4-b]pyrrol-6-yl]-benzonitrile], the concentration for half-maximal inhibition (IC50) amounted to 0.422 nM.

In the case of `COc1ccc(C#N)cc1-c1cc2c(n1C(C)C)C(c1ccc(Cl)cc1)N(c1cc(Cl)ccc1C)C2=O` (stereo not shown) [Example 17, 3-[5-(5-Chloro-2-methyl-phenyl)-6-(4-chloro-phenyl)-1-isopropyl-4-oxo-1,4,5,6-tetrahydro-pyrrolo[3,4-b]pyrrol-2-yl]-4-methoxy-benzonitrile], the IC50 amounted to 0.281 nM.

For `COc1ncc(-c2cc3c(n2C(C)C)C(c2ccc(Cl)cc2)N(c2cn(C)nc2C)C3=O)c(OC)n1` (stereo not shown) [Example 181, 6-(4-Chloro-phenyl)-2-(2,4-dimethoxy-pyrimidin-5-yl)-5-(1,3-dimethyl-1H-pyrazol-4-yl)-1-isopropyl-5,6-dihydro-1H-pyrrolo[3,4-b]pyrrol-4-one], the IC50 came out at 2.39 nM.

In the case of `COc1ccc(C(N)=O)cc1-c1cc2c(n1C(C)C)C(c1ccc(Cl)cc1)N(c1cc(Cl)ccc1C)C2=O` (stereo not shown) [Example 61, 3-[5-(5-Chloro-2-methyl-phenyl)-6-(4-chloro-phenyl)-1-isopropyl-4-oxo-1,4,5,6-tetrahydro-pyrrolo[3,4-b]pyrrol-2-yl]-4-methoxy-benzamide], the IC50 came to 0.104 nM.

Consider `CCOC(=O)c1c2c(n(C(C)C)c1-c1cnc(OC)nc1OC)C(c1ccc(Cl)cc1)N(c1cc(Cl)c(=O)n(C)c1)C2=O` (stereo not shown) [Example 220, 5-(5-Chloro-1-methyl-6-oxo-1,6-dihydro-pyridin-3-yl)-6-(4-chloro-phenyl)-2-(2,4-dimethoxy-pyrimidin-5-yl)-1-isopropyl-4-oxo-1,4,5,6-tetrahydro-pyrrolo[3,4-b]pyrrole-3-carboxylic acid ethyl ester], for which the IC50 is 0.134 nM.

In the case of `COc1nc(N)ncc1-c1cc2c(n1C(C)C)C(c1ccc(C#N)cc1)N(c1c[nH]c(=O)c(Cl)c1)C2=O` (stereo not shown) [Example 134, 4-[2-(2-Amino-4-methoxy-pyrimidin-5-yl)-5-(5-chloro-6-oxo-1,6-dihydro-pyridin-3-yl)-1-isopropyl-4-oxo-1,4,5,6-tetrahydro-pyrrolo[3,4-b]pyrrol-6-yl]-benzonitrile], the IC50 was 1.25 nM.

Turning to `COc1ncc(-c2cc3c(n2C(C)C)C(c2ccc(C#N)c(F)c2)N(c2cc(Cl)c[nH]c2=O)C3=O)c(OC)n1` (stereo not shown) [Example 200, 4-[5-(5-Chloro-2-oxo-1,2-dihydro-pyridin-3-yl)-2-(2,4-dimethoxy-pyrimidin-5-yl)-1-isopropyl-4-oxo-1,4,5,6-tetrahydro-pyrrolo[3,4-b]pyrrol-6-yl]-2-fluoro-benzonitrile], the IC50 stood at 0.37 nM.

For the molecule `COc1ncc(CC#N)cc1-c1cc2c(n1C(C)C)C(c1ccc(C#N)cc1)N(c1cccc(Cl)c1F)C2=O` (stereo not shown) [Example 88, 4-[5-(3-Chloro-2-fluoro-phenyl)-2-(5-cyanomethyl-2-methoxy-pyridin-3-yl)-1-isopropyl-4-oxo-1,4,5,6-tetrahydro-pyrrolo[3,4-b]pyrrol-6-yl]-benzonitrile], the IC50 worked out at 1.64 nM.

Take `COc1ncc(-c2cc3c(n2C(C)C)C(c2ccc(C#N)cc2)N(c2ccc(F)c(Cl)c2)C3=O)c(OC)n1` (stereo not shown) [Example 40, 4-[5-(3-Chloro-4-fluoro-phenyl)-2-(2,4-dimethoxy-pyrimidin-5-yl)-1-isopropyl-4-oxo-1,4,5,6-tetrahydro-pyrrolo[3,4-b]pyrrol-6-yl]-benzonitrile]: the IC50 worked out at 0.478 nM.

For the molecule `COc1ncc(-c2cc3c(n2C(C)C)C(c2ccc(C#N)cc2)N(c2cc(Cl)c[nH]c2=O)C3=O)c(OC)n1` (stereo not shown) [Example 126, 4-[5-(5-Chloro-2-oxo-1,2-dihydro-pyridin-3-yl)-2-(2,4-dimethoxy-pyrimidin-5-yl)-1-isopropyl-4-oxo-1,4,5,6-tetrahydro-pyrrolo[3,4-b]pyrrol-6-yl]-benzonitrile], the IC50 stood at 0.779 nM.

For the molecule `COC[C@@H](C)n1c(-c2cnc(N)nc2OC)cc2c1[C@H](c1ccc(Cl)cc1)N(c1ccc(F)c(Cl)c1)C2=O` [Example 229], the IC50 was 0.078 nM.

Take `COc1nc(N(C)C)ncc1-c1cc2c(n1C(C)C)[C@H](c1ccc(Cl)c(F)c1)N(c1cc(Cl)c[nH]c1=O)C2=O` [Example 227, (S)-6-(4-Chloro-3-fluoro-phenyl)-5-(5-chloro-2-oxo-1,2-dihydro-pyridin-3-yl)-2-(2-dimethylamino-4-methoxy-pyrimidin-5-yl)-1-isopropyl-5,6-dihydro-1H-pyrrolo[3,4-b]pyrrol-4-one]: the IC50 worked out at 0.071 nM.

On to `COc1cnc(CC#N)cc1-c1cc2c(n1C(C)C)C(c1ccc(C#N)cc1)N(c1cccc(Cl)c1F)C2=O` (stereo not shown) [Example 87, 4-[5-(3-Chloro-2-fluoro-phenyl)-2-(2-cyanomethyl-5-methoxy-pyridin-4-yl)-1-isopropyl-4-oxo-1,4,5,6-tetrahydro-pyrrolo[3,4-b]pyrrol-6-yl]-benzonitrile], for which the IC50 stood at 0.359 nM.

For the molecule `CNC(=O)c1ccc(OC)c(-c2cc3c(n2C(C)C)C(c2ccc(Cl)cc2C)N(c2cc(Cl)ccc2C)C3=O)c1` (stereo not shown) [Example 31, 3-[5-(5-Chloro-2-methyl-phenyl)-6-(4-chloro-2-methyl-phenyl)-1-isopropyl-4-oxo-1,4,5,6-tetrahydro-pyrrolo[3,4-b]pyrrol-2-yl]-4-methoxy-N-methyl-benzamide], the IC50 was 0.184 nM.

Regarding `COc1ncncc1-c1cc2c(n1C(C)C)C(c1ccc(C#N)cc1)N(c1cc(Cl)c(=O)n(C)c1)C2=O` (stereo not shown) [Example 236, 4-(5-(5-Chloro-1-methyl-6-oxo-1,6-dihydropyridin-3-yl)-1-isopropyl-2-(4-methoxypyrimidin-5-yl)-4-oxo-1,4,5,6-tetrahydropyrrolo[3,4-b]pyrrol-6-yl)benzonitrile], the IC50 was determined as 2.98 nM.

As for `COc1ccc(C#N)cc1-c1cc2c(n1C(C)C)C(c1ccc(Cl)cc1)N([C@H]1CC[C@H](O)CC1)C2=O` (stereo partly drawn) [Example 67, 3-[6-(4-Chloro-phenyl)-5-(trans-4-hydroxy-cyclohexyl)-1-isopropyl-4-oxo-1,4,5,6-tetrahydro-pyrrolo[3,4-b]pyrrol-2-yl]-4-methoxy-benzonitrile], the IC50 is 2.49 nM.

As for `CNS(=O)(=O)c1ccc(OC)c(-c2cc3c(n2C(C)C)C(c2ccc(Cl)cc2)N(c2cc(Cl)ccc2C)C3=O)c1` (stereo not shown) [Example 62, 3-[5-(5-Chloro-2-methyl-phenyl)-6-(4-chloro-phenyl)-1-isopropyl-4-oxo-1,4,5,6-tetrahydro-pyrrolo[3,4-b]pyrrol-2-yl]-4-methoxy-N-methyl-benzenesulfonamide], the IC50 worked out at 0.169 nM.

In the case of `COc1nc(N(C)C)ncc1-c1cc2c(n1C(C)C)C(c1ccc(Cl)cc1)N(c1c[nH]c(=O)c(Cl)c1)C2=O` (stereo not shown) [Example 140, 5-(5-Chloro-6-oxo-1,6-dihydro-pyridin-3-yl)-6-(4-chloro-phenyl)-2-(2-dimethylamino-4-methoxy-pyrimidin-5-yl)-1-isopropyl-1-5,6-dihydro-1H-pyrrolo[3,4-b]pyrrol-4-one], the IC50 is 0.231 nM.

With `COc1ncc(-c2cc3c(n2C(C)C)[C@@H](c2ccc(Cl)cc2)N(c2cc(Cl)c(=O)n(C)c2)C3=O)c(OC)n1` [Example 122, (R)-5-(5-Chloro-1-methyl-6-oxo-1,6-dihydro-pyridin-3-yl)-6-(4-chloro-phenyl)-2-(2,4-dimethoxy-pyrimidin-5-yl)-1-isopropyl-5,6-dihydro-1H-pyrrolo[3,4-b]pyrrol-4-one], the IC50 is 76.9 nM.

For `COc1nc(N(C)C)ncc1-c1c(C#N)c2c(n1C(C)C)C(c1ccc(Cl)cc1)N(c1cc(Cl)c(=O)n(C)c1)C2=O` (stereo not shown) [Example 164, 5-(5-Chloro-1-methyl-6-oxo-1,6-dihydro-pyridin-3-yl)-6-(4-chloro-phenyl)-2-(2-dimethylamino-4-methoxy-pyrimidin-5-yl)-1-isopropyl-4-oxo-1,4,5,6-tetrahydro-pyrrolo[3,4-b]pyrrole-3-carbonitrile], the IC50 is 0.121 nM.

For `COc1ncc(-c2cc3c(n2C(C)C)C(c2ccc(C#N)cc2)N(c2c(F)c(C)nn2C)C3=O)c(OC)n1` (stereo not shown) [Example 211, 4-[2-(2,4-Dimethoxy-pyrimidin-5-yl)-5-(4-fluoro-2,5-dimethyl-2H-pyrazol-3-yl)-1-isopropyl-4-oxo-1,4,5,6-tetrahydro-pyrrolo[3,4-b]pyrrol-6-yl]-benzonitrile], the IC50 amounted to 1.68 nM.
